Reference: patent US10869931B2, “Polyethylene glycol-modified angiogenesis inhibitor HM-1 and application thereof” (NANJING ANJI BIOLOGICAL TECHNOLOGY CO.,LTD, priority 2016, dated 2020)
Marks after values point to notes of the source that are not given here. Where no end group is shown, it is not given here.

Experiments:
Liver cancer tumor cells = experiment: MTT proliferation inhibition, liver cancer cells; assay type: cell-based, human; set-up: concentration or dose not given beside the values; conditions: 48 h
Protocol: (§1) The activity of mPEG-HM-1 to inhibit the growth of various tumor cells was examined by MTT assay. The tumor cells were cultured to a concentration of 90% or more in a 37° C., 5% CO2 incubator and collected by trypsinization. The cells were resuspended in the culture medium and counted under a microscope to adjust the cell concentration to 2×10^4 cells/mL, the cell suspension was inoculated into a 96-well plate at 100 μL/well and incubated overnight at 37° C. in a 5% CO2 incubator. mPEG-HM-1 was diluted with the culture solution to each predetermined concentration. Docetaxel is diluted to the final concentration with the culture medium. After the cells were fully attached, each dilution was added to a 96-well plate (100 μL/well). The mPEG-HM-1 dilution was added as a drug-administered group, and docetaxel was added as a positive control group, and a culture solution without any drug was used as a negative control group. Incubate for 48 h at 37° C. in a 5% CO2 incubator. 5 mg/mL of MTT was added to a 96-well plate at 20 μL per well, and incubation was continued for 4 hours. The medium was aspirated, dissolved in 150 μL of DMSO per well, and gently mixed by shaking for 10 min. The absorbance was measured at a measurement wavelength of 570 nm and a reference wavelength of 630 nm using a microplate reader, and the rate of growth inhibition (proliferation inhibition, PI) was calculated. The formula is as follows: PI (%)=1−administration group/negative group
(§2) The test was repeated 3 times independently, and the results obtained by the test were expressed as mean±SD, and the test results are shown in Table 15 to Table 18.

[1] = test system: Uterine cancer tumor cells; experiment: MTT proliferation inhibition, uterine cancer cells; assay type: cell-based, human; set-up: concentration or dose not given beside the values; conditions: 48 h
Protocol: as §1, §2

[2] = test system: neovascularization in rat model of premature retinopathy; experiment: Fluctuating-oxygen rat model of premature retinopathy (endothelial nuclei count); assay type: in vivo; conditions: day 14
Protocol: A fluctuating oxygen-induced animal model was used to randomly divide the newborn rats that were naturally delivered on the same day (within 12 hours) into three groups: the oxygenated model group, the oxygenated treatment group, and the normal control group. The oxygenated model group was subdivided into three subgroup models and along with the oxygenated treatment group was placed in a semi-closed oxygen chamber made of plexiglass. The chamber was connected to medical oxygen, and the oxygen analyzer was adjusted to a concentration of 80%±2%. After 24 hours, Nitrogen gas was introduced into the oxygen chamber, and the oxygen concentration was adjusted to 10%±2% and maintained for 24 h. This process was repeated, so that the oxygen concentration in the oxygen chamber is switched between 80% and 10% every 24 hours, and then transferred to the air for 7 days. The oxygen concentration was monitored 8 times a day, and the ambient temperature in the control cabin was 23° C.±2° C. Bedding change, adding food, changing water and replacing mother rats were performed once a day. The normal control group was placed in an animal facility environment. […] The oxygenated therapeutic components were divided into four subgroups, and on the 7th day of modeling, mPEG-SC-HM-1, mPEG2-NHS-HM-1, mPEG-ALD10k-HM-1, and mPEG-bALD-HM-1 were respectively administered by intravitreal injection. Only normal saline was administered to the oxygen model group and the control group. The administrations continued for 1 week. […] After immersion in wax, serial section at thickness of 4 μm was performed, wherein the sections were kept away from the optic disc. The sections are parallel to the sagittal plane of the cornea to the optic disc. Ten sections per eyeball were randomly selected from each eyeball to be stained with hematoxylin and eosin, and the number of vascular endothelial cells that broke through the retinal inner membrane was counted (only the vascular endothelial nucleus closely related to the inner retinal membrane was counted), and the average numbers of endothelial cells per eyeball per slice was counted.

sarcoma tumor cells = experiment: MTT proliferation inhibition, sarcoma cells; assay type: cell-based, human; set-up: concentration or dose not given beside the values; conditions: 48 h
Protocol: as §1, §2

[3] = test system: human retinal vascular endothelial cells (HRCEC); experiment: MTT proliferation of human retinal vascular endothelial cells; assay type: cell-based; conditions: 48 h; for Inhibition rate: HRCEC proliferation; for A570 nm-A630 nm: HRCEC; for A570 nm-A630 nm / inhibition rate of HRCEC proliferation: MTT
Protocol: The activity of the angiogenesis inhibitor polypeptide to inhibit proliferation of human retinal vascular endothelial cells was examined by MTT assay. HRCEC cells were cultured in a 37° C., 5% CO2 incubator to a density of 90% or more, and collected by trypsinization. The cells were resuspended in the culture medium and counted under a microscope to adjust the cell concentration to 3.0×10^4 cells/mL. The cell suspension was inoculated into a 96-well plate at 100 μL per well and cultured overnight at 37° C. in a 5% CO2 incubator. After the cells were completely adhered, the angiogenesis inhibitor polypeptide was added as the administration group, and Avastin was used as the positive control group, and the culture media without any drug was used as a blank control group, and the culture media were diluted to each predetermined concentration. Each dilution was separately added to a 96-well plate at 100 μL per well and incubated for 48 h at 37° C. in a 5% CO2 incubator. 20 μL of 5 mg/mL MTT was added to each well of a 96-well plate and incubation was continued for 4 h. The medium was aspirated and dissolved in 100 μL of DMSO per well. […] The formula is as follows: PI (%)=1−administration group/negative group
The test was repeated 3 times independently. The results obtained by the test were expressed as mean±SD, and a statistical T test was performed. *P<0.05 was a significant difference, and **P<0.01 was a very significant difference.

Melanoma tumor cells = experiment: MTT proliferation inhibition, melanoma cells; assay type: cell-based, human; set-up: concentration or dose not given beside the values; conditions: 48 h
Protocol: as §1, §2

[4] = test system: Prostate cancer tumor cells; experiment: MTT proliferation inhibition, prostate cancer cells; assay type: cell-based, human; set-up: concentration or dose not given beside the values; conditions: 48 h
Protocol: as §1, §2

[5] = 25 μg intravitreal for 1 week from day 7, vascular endothelial nuclei breaking through inner retinal membrane per slice
[6] = 50 μg intravitreal for 1 week from day 7, vascular endothelial nuclei per slice

mPEG2-NHS5k-Arg-Gly-Ala-Asp-Arg-Ala-Gly-Gly-Gly-Gly-Arg-Gly-Asp ({mPEG2‑NHS 5 kDa}-RGADRAGGGGRGD) [mPEG2-NHS5k-HM-1]
rate of growth inhibition (Liver cancer tumor cells): 50.92 ± 11.66% | rate of growth inhibition [1]: 55.20 ± 15.63% | Cell nuclei count [2, 5]: 9.212 ± 3.134 | rate of growth inhibition (sarcoma tumor cells): 38.41 ± 11.10% | Inhibition rate ([3]; 20 μg/mL): 40.94%* | A570 nm-A630 nm ([3]; 20 μg/mL): 0.7807 ± 0.09103 | Inhibition rate ([3]; 40 μg/mL): 50.65%** | A570 nm-A630 nm ([3]; 40 μg/mL): 0.6523 ± 0.08688 | Inhibition rate ([3]; 60 μg/mL): 61.08%* | A570 nm-A630 nm ([3]; 60 μg/mL): 0.5144 ± 0.08531 | rate of growth inhibition (Melanoma tumor cells): 59.21 ± 18.93% | rate of growth inhibition [4]: 39.33 ± 12.01%

mPEG2-NHS10k-Arg-Gly-Ala-Asp-Arg-Ala-Gly-Gly-Gly-Gly-Arg-Gly-Asp ({mPEG2‑NHS 10 kDa}-RGADRAGGGGRGD) [mPEG2-NHS10k-HM-1]
rate of growth inhibition (Liver cancer tumor cells): 54.19 ± 12.80% | rate of growth inhibition [1]: 60.49 ± 18.05% | Cell nuclei count [2, 6]: 8.786 ± 3.072 | rate of growth inhibition (sarcoma tumor cells): 43.59 ± 12.39% | Inhibition rate ([3]; 40 μg/mL): 45.83%* | A570 nm-A630 nm ([3]; 40 μg/mL): 0.7160 ± 0.07829 | Inhibition rate ([3]; 60 μg/mL): 54.72%** | A570 nm-A630 nm ([3]; 60 μg/mL): 0.5985 ± 0.07472 | inhibition rate of HRCEC proliferation ([3]; 80 μg/mL): 65.13% | Inhibition rate ([3]; 80 μg/mL): 65.13%* | A570 nm-A630 nm ([3]; 80 μg/mL): 0.4609 ± 0.07165 | rate of growth inhibition (Melanoma tumor cells): 65.89 ± 20.57% | rate of growth inhibition [4]: 42.39 ± 12.65%

mPEG2-NHS20k-Arg-Gly-Ala-Asp-Arg-Ala-Gly-Gly-Gly-Gly-Arg-Gly-Asp ({mPEG2‑NHS 20 kDa}-RGADRAGGGGRGD) [mPEG2-NHS20k-HM-1]
rate of growth inhibition (Liver cancer tumor cells): 55.03 ± 14.19% | rate of growth inhibition [1]: 65.99 ± 22.07% | Cell nuclei count ([2]; 100 μg intravitreal for 1 week from day 7, vascular endothelial nuclei per slice): 7.683 ± 2.914 | rate of growth inhibition (sarcoma tumor cells): 48.91 ± 10.57% | Inhibition rate ([3]; 60 μg/mL): 44.01%* | A570 nm-A630 nm ([3]; 60 μg/mL): 0.7401 ± 0.07482 | Inhibition rate ([3]; 80 μg/mL): 54.18%** | A570 nm-A630 nm ([3]; 80 μg/mL): 0.6056 ± 0.07003 | Inhibition rate ([3]; 100 μg/mL): 64.62%* | A570 nm-A630 nm ([3]; 100 μg/mL): 0.4677 ± 0.07601 | rate of growth inhibition (Melanoma tumor cells): 69.11 ± 21.79% | rate of growth inhibition [4]: 47.75 ± 10.14%

mPEG2-NHS40k-Arg-Gly-Ala-Asp-Arg-Ala-Gly-Gly-Gly-Gly-Arg-Gly-Asp ({mPEG2‑NHS 40 kDa}-RGADRAGGGGRGD) [mPEG2-NHS40k-HM-1]
rate of growth inhibition (Liver cancer tumor cells): 53.77 ± 13.64% | rate of growth inhibition [1]: 62.25 ± 20.39% | Cell nuclei count ([2]; 200 μg intravitreal for 1 week from day 7, vascular endothelial nuclei per slice): 8.495 ± 3.036 | rate of growth inhibition (sarcoma tumor cells): 46.46 ± 11.54% | Inhibition rate ([3]; 80 μg/mL): 42.52%* | A570 nm-A630 nm ([3]; 80 μg/mL): 0.7598 ± 0.07143 | Inhibition rate ([3]; 100 μg/mL): 51.86%** | A570 nm-A630 nm ([3]; 100 μg/mL): 0.6363 ± 0.07532 | Inhibition rate ([3]; 120 μg/mL): 62.78%* | A570 nm-A630 nm ([3]; 120 μg/mL): 0.4920 ± 0.07953 | rate of growth inhibition (Melanoma tumor cells): 66.72 ± 20.85% | rate of growth inhibition [4]: 45.91 ± 11.74%

mPEG-ALD5k-Arg-Gly-Ala-Asp-Arg-Ala-Gly-Gly-Gly-Gly-Arg-Gly-Asp ({mPEG‑ALD 5 kDa}-RGADRAGGGGRGD) [mPEG-ALD5k-HM-1]
rate of growth inhibition (Liver cancer tumor cells): 52.98 ± 11.55% | rate of growth inhibition [1]: 65.99 ± 17.72% | Cell nuclei count [2, 5]: 8.927 ± 2.902 | rate of growth inhibition (sarcoma tumor cells): 38.41 ± 12.53% | Inhibition rate ([3]; 20 μg/mL): 42.02%* | A570 nm-A630 nm ([3]; 20 μg/mL): 0.7599 ± 0.08933 | Inhibition rate ([3]; 40 μg/mL): 51.93%** | A570 nm-A630 nm ([3]; 40 μg/mL): 0.6301 ± 0.08011 | Inhibition rate ([3]; 60 μg/mL): 61.53%* | A570 nm-A630 nm ([3]; 60 μg/mL): 05042 ± 0.08135 | rate of growth inhibition (Melanoma tumor cells): 63.61 ± 21.30% | rate of growth inhibition [4]: 38.47 ± 11.52%

mPEG-ALD10k-Arg-Gly-Ala-Asp-Arg-Ala-Gly-Gly-Gly-Gly-Arg-Gly-Asp ({mPEG‑ALD 10 kDa}-RGADRAGGGGRGD) [mPEG-ALD10k-HM-1]
rate of growth inhibition (Liver cancer tumor cells): 70.55 ± 20.09% | rate of growth inhibition [1]: 90.79 ± 22.19% | Cell nuclei count [2, 6]: 7.581 ± 1.903 | rate of growth inhibition (sarcoma tumor cells): 53.01 ± 11.42% | Inhibition rate ([3]; 40 μg/mL): 48.34%* | A570 nm-A630 nm ([3]; 40 μg/mL): 0.6771 ± 0.07904 | Inhibition rate ([3]; 60 μg/mL): 58.62%** | A570 nm-A630 nm ([3]; 60 μg/mL): 0.5424 ± 0.07508 | inhibition rate of HRCEC proliferation ([3]; 80 μg/mL): 73.89% | Inhibition rate ([3]; 80 μg/mL): 73.89%* | A570 nm-A630 nm ([3]; 80 μg/mL): 0.3422 ± 0.07412 | rate of growth inhibition (Melanoma tumor cells): 88.39 ± 22.38% | rate of growth inhibition [4]: 51.09 ± 11.78%
